Experiments:
Format in all cases: cell-based, human
[1] = tested on: day 5 aSHF cells; assay: Retinol treatment of day 5 aSHF cells, RT-qPCR of RA-responsive genes; settings: ROH for 24 hours vs DMSO, RT-qPCR day 6 (FIG. 4J)
Description: At day 1, the EBs were transferred to mesoderm induction media consisting of base media, 5 ng/mL rhbFGF (R&D), and various concentration of rhBMP4 (R&D) and rhActivinA (R&D) as described in the results section. At day 3, the EBs were transferred to the media consisting of base media, 2 μM Wnt inhibitor IWP2 (TOCRIS) and 10 ng/ml rhVEGF (R&D). From day 5 to day 12, the EBs were transferred to base media with 5 ng/mL rhVEGF. From day 12 to day 20, the EBs were transferred to base media and cultured in a normoxic environment (5% CO2, 20% O2). For pSHF lineage differentiation, the day 4 sorted pSHF cells were treated with 2 μM Retinol (Sigma) from day 4 to day 8. […]
RNA extraction was performed using the RNAqueous-micro Kit (Invitrogen). […] QRT-PCR was performed on an EP Real-Plex MasterCycler (Eppendorf) using QuantiFast SYBR Green PCR kit (QIAGEN). The copy number of each gene was determined based on a standard curve plotted with human genome DNA with known copy number. […]
The pSHF lineage expressed ALDH1A2 and RDH10, from the day 3 mesoderm stage onward, whereas expression of these genes was not detected until day 4 of differentiation in the aSHF lineage (FIG. 4G). These patterns correlate well with ALDH activity, which was detected in more than 90% of the days 4 and 5 pSHF cells. […] ALDH was not detected in the day 5 FHF population. […]

[2] = tested on: day 4 pSHF cells (ALDH CXCR4−); assay: Retinol treatment of isolated day 4 pSHF cells, RT-qPCR of progenitor markers; settings: retinol 2 μM vs DMSO, 24 hours
Description: At day 1, the EBs were transferred to mesoderm induction media consisting of base media, 5 ng/mL rhbFGF (R&D), and various concentration of rhBMP4 (R&D) and rhActivinA (R&D) as described in the results section. At day 3, the EBs were transferred to the media consisting of base media, 2 μM Wnt inhibitor IWP2 (TOCRIS) and 10 ng/ml rhVEGF (R&D). From day 5 to day 12, the EBs were transferred to base media with 5 ng/mL rhVEGF. From day 12 to day 20, the EBs were transferred to base media and cultured in a normoxic environment (5% CO2, 20% O2). For pSHF lineage differentiation, the day 4 sorted pSHF cells were treated with 2 μM Retinol (Sigma) from day 4 to day 8. Similarly, the sorted aSHF cells were treated with 2 μM Retinol and 10 ng/mL rhBMP4 from day 5 to day 8 of differentiation.
RNA extraction was performed using the RNAqueous-micro Kit (Invitrogen). Purified RNA was treated with RNase-free DNase (Invitrogen), and then reverse transcribed into cDNA using oligo (dT) primers and random hexamers and iscript Reverse Transcriptase (ThermoFisher). QRT-PCR was performed on an EP Real-Plex MasterCycler (Eppendorf) using QuantiFast SYBR Green PCR kit (QIAGEN). The copy number of each gene was determined based on a standard curve plotted with human genome DNA with known copy number. The relative expression levels of genes were obtained by normalizing their copy number to that of TBP. […]

[3] = tested on: aSHF progenitors; assay: BMP pathway agonist/antagonist treatment of day 5 aSHF progenitors, RT-qPCR 24 hours after treatment; settings: for expression of genes indicative of aSHF (FGF8 and ISL1), pSHF (HOXB1) and FHF (HAND1) fates in the aSHF population: 10 ng/mL BMP4 or 0.1 μM LDN, ROH added, 24 hours after treatment (FIG. 5C)
Description: (§1) RNA extraction was performed using the RNAqueous-micro Kit (Invitrogen). Purified RNA was treated with RNase-free DNase (Invitrogen), and then reverse transcribed into cDNA using oligo (dT) primers and random hexamers and iscript Reverse Transcriptase (ThermoFisher). QRT-PCR was performed on an EP Real-Plex MasterCycler (Eppendorf) using QuantiFast SYBR Green PCR kit (QIAGEN). The copy number of each gene was determined based on a standard curve plotted with human genome DNA with known copy number. The relative expression levels of genes were obtained by normalizing their copy number to that of TBP.
(§2) The above observation that the aSHF progenitors express genes involved in Bmp signaling is consistent with the known role of this pathway in the development of right ventricular cardiomyocytes from aSHF progenitors in the mouse. […] The notable exception is the genes for the ligands BMP2 and BMP4, which are also highly expressed in the FHF lineage (FIG. 5B). To determine if BMP plays a role in the differentiation of the aSHF progenitors to derivative lineages, the day 5 cells were treated with either a pathway agonist (10 ng/mL BMP4) or antagonist (0.1 μM LDN) and then the population was analyzed 24 hours after the treatments. FHF and pSHF progenitors were included in the analyses, and ROH was added to the cultures of pSHF and aSHF progenitor, given that both populations display ALDH activity. […] Inhibition of the pathway did, however, lead to upregulation of genes associated with pharyngeal progenitors (FOXC2 and SIX1) (FIG. 5D) and downregulation of those indicative of cardiomyocyte development (UNC45B and GATA4) (FIG. 5E). To further investigate the consequences of BMP manipulation, the agonist/antagonist treatment was extended for an additional 48 hours and then the treated cells were cultured for 12 days to promote cardiomyocyte development. FHF and pSHF progenitors also were cultured for 20 days without manipulation of BMP signaling. All 3 progenitor populations generated TNNT2^+/SIRPa^+ cardiomyocytes by day 20 of differentiation (FIGS. 5F and 5G). In addition to the cardiomyocytes, the aSHF-derived population also contained PDGFR-beta^+ mesenchymal cells (FIG. 5F).

[4] = tested on: aSHF progenitors; assay: Extended BMP agonist/antagonist treatment of aSHF progenitors, day 20 flow cytometry and cell numbers; settings: treatment extended additional 48 hours, then cultured 12 days; day 20 (FIGS. 5F and 5H)
Description: Cells of early stages (day 3 to day 6) were dissociated with TrypLE for 3-5 minutes at room temperature to single cells, which were then filtered and transferred to IMDM media. Day 20 EBs were dissociated with 0.5 mg/ml collagenase type 2 (Worthington) in HANKs buffer for 1.5 hours at 37° C. The filtered day 20 cells were then transferred to FACS buffer consisting of PBS with 5% fetal calf serum (Wisent) and 0.02% sodium azide. The following antibodies were used for staining samples obtained from various stages of differentiation: anti-PDGFRa-PE (R&D Systems, 1:20), anti-CD235a/b-APC (BD PharMingen, 1:200), anti-SIRPa-PeCy7 (Biolegend, 1:2000), anti-CXCR4 (Biolegend, 1:100), anti-CDId-PE (Biolegend, 1:100), anti-CD49c-PE (ThermoFisher, 1:100), anti-cardiac isoform of CTNT (ThermoFisher Scientific, 1:2000), or anti-myosin light chain 2 (Abcam, 1:1000). For unconjugated primary antibodies, the following secondary antibodies were used for detection: goat anti-mouse IgG-APC (BD Pharmigen, 1:250), or donkey anti-rabbit IgG-PE (Jackson ImmunoResearch, 1:250). Detailed antibody information is described in Table 2.
To stain live cells with cell-surface protein, dissociated single cells were stained for 15 minutes at room temperature in FACS buffer and washed twice before they were subject to further analyses. For intracellular staining, cells were fixed for 15 min at 4° C. in PBS containing 4% PFA followed by permeabilization using 90% methanol for 15 min at 4° C. The permeabilized cells were washed with PBS containing 0.5% BSA (Sigma) twice and stained with unconjugated primary antibodies in FACS buffer for 18 hours at 4° C. Stained cells were washed with PBS with 0.5% BSA and stained with proper secondary antibodies in FACS buffer for 30 mins at 4° C. Following washing steps, stained cells were processed with the Fortessa (BD) and analyzed using FlowJo software (Tree Star). For cell sorting, stained cells were kept in StemPro-34 media and sorted using Influx (BD), FACSAriall (BD), MoFlo-XDP (BD) and FACSAria Fusion (BD). Data were analyzed using FlowJo software (Tree Star).
as §2, with “All 3 progenitor populations generated TNNT2^+/SIRPa^+ cardiomyocytes by day 20 of differentiation (FIGS. 5F and 5G). In addition to the cardiomyocytes, the aSHF-derived population also contained PDGFR-beta^+ mesenchymal cells (FIG. 5F).” left out

[5] = tested on: aSHF cells; assay: Extended BMP agonist/antagonist treatment of aSHF cells, day 20 RT-qPCR; settings: aSHF cells treated with LDN
Description: as §1
The above observation that the aSHF progenitors express genes involved in Bmp signaling is consistent with the known role of this pathway in the development of right ventricular cardiomyocytes from aSHF progenitors in the mouse. […] The notable exception is the genes for the ligands BMP2 and BMP4, which are also highly expressed in the FHF lineage (FIG. 5B). To determine if BMP plays a role in the differentiation of the aSHF progenitors to derivative lineages, the day 5 cells were treated with either a pathway agonist (10 ng/mL BMP4) or antagonist (0.1 μM LDN) and then the population was analyzed 24 hours after the treatments. […]

| Molecule | expression of the RA-responsive gene CYP26A1 and HOXB1 [1] | expression of the RA responsive gene CYP26A1 and the pSHF progenitor markers HOXA1 and HOXB1 ([2]; RT-qPCR (FIG. 3H)) | expression of aSHF progenitor markers FGF10, FOXC1 and FOXC2 ([2]; RT-qPCR (FIG. 3I)) | expression of genes indicative of aSHF (FGF8 and ISL1), pSHF (HOXB1) and FHF (HAND1) fates in the aSHF population [3] | expression of genes associated with pharyngeal progenitors (FOXC2 and SIX1) ([3]; 0.1 μM LDN, 24 hours after treatment (FIG. 5D)) | expression of genes indicative of cardiomyocyte development (UNC45B and GATA4) ([3]; 0.1 μM LDN, 24 hours after treatment (FIG. 5E)) | PDGFR-beta+ cells in the aSHF-derived population (number / size of fraction) [4] | proportion of cardiomyocytes in the aSHF-derived population [4] | expression of the ventricular cardiomyocyte markers IRX4 and MY1.2 [5] | levels of PDGFRB [5] | number of cardiomyocytes in the aSHF-derived population [4] |
| --- | --- | --- | --- | --- | --- | --- | --- | --- | --- | --- | --- |
| CC1=C(/C=C/C(C)=C/C=C/C(C)=C/CO)C(C)(C)CCC1 [ROH, Retinol] | upregulation | upregulation | downregulated | – | – | – | – | – | – | – | – |
| c1ccc2c(-c3cnn4cc(-c5ccc(N6CCNCC6)cc5)cnc34)ccnc2c1 [LDN, LDN 193189] | – | – | – | did not alter | upregulation | downregulation | increased | reduced | decrease | elevated | – |
| BMP4: Recombinant human BMP4 (R&D), BMP pathway agonist (protein, UniProt P12644 293-408, looked up) Bone morphogenetic protein 4: SPKHHSQRARKKNKNCRRHSLYVDFSDVGWNDWIVAPPGYQAFYCHGDCPFPLADHLNSTNHAIVQTLVNSVNSSIPKACCVPTELSAISMLYLDEYDKVVLKNYQEMVVEGCGCR | – | – | – | did not alter | – | – | reducing | increased | – | – | increased |
